Measurements as given in patent EP4268824A1 (Manros Therapeutics, priority 2022, dated 2023).
pIC50: −log10 of the molar value. Like-named read-outs stand apart in the source and are kept apart here.

Key:
F508del-CFTR [1] = target: T1, F508del-CFTR (Homo sapiens, UniProt P13569, DEL508-508); test: CFTR activation assay: short-circuit current measurements (Ussing chamber) in CFBE cells treated 24 h with CFTR modulator(s) plus compound; format: cell-based; details: for F508del-CFTR activity as percentage of F508del-CFTR activity in the presence of Trikafta alone (100%): CFE cells, with Trikafta
T1 construct: expressed in transfected cells; host or cells: CFBE41o- cells (CFBE F508del-CFTR), puromycin-selected
Procedure: • FIG 1. represents the conductance measurement as a function of time for assessing the activity of F508del-CFTR in CFBE cells using the Ussing chamber as set forth in example 13. Cells are incubated for 24 hours with either Trikafta® alone or Trikafta® + a compound of formula (I) as defined herein after. Conductance is measured as a function of time. […] This is the measure which are reported in all Tables shown below. • FIG 2. The correcting effect of Trikafta® on F508del-CFTR in a pulmonary epithelial cell line derived from a F508del-CFTR CF patient was tested as set forth in example 13 herein after in the presence of increasing concentrations of compound (44) as defined herein after and compound (107) as defined herein after. Dose-response curves were built from the activation and inhibition data (see FIG. 1). 100% represents the activity of Trikafta® alone. • FIG 3. […] CFE cells were treated with Trikafta® 100%, 33%, or 11%, in the absence or presence of 1 µM of compound (107). F508del-CFTR activity was monitored as described in the Experimental section and above. Activity is reported as percentage of δF508del-CFTR activity in the presence of Trikafta® alone (100%). The fold change over the activity of Trikafta® alone is indicated in parentheses. • FIG 4. The correcting effect of further CFTR modulators than Trikafta®, i.e. Galapagos compounds as defined herein after (GLPG 222 (G1), GLPG 1837 (G2), GLPG 2451 (G3)) (1 µM each) on F508del-CFTR in a pulmonary epithelial cell line derived from a F508del-CFTR CF patient was tested as set forth in example 13 herein after in the presence of increasing concentrations of compound (107) as defined herein after. Dose-response curves were built from the activation and inhibition data (see FIG. 1). 100% represents the activity of each CFTR modulator alone.
The activity of F508del-CFTR was indeed estimated according to the method described below in example 13. This method makes use of CFBE cells, an immortalized cell line generated from bronchial epithelium of a CF patient homozygous for F508del-CFTR [Kunzelmann, K. et al., 1993. An immortalized cystic fibrosis tracheal epithelial cell line homozygous for the F508del CFTR mutation. Am. J. Respir. Cell Mol. Biol. 8, 522-529.]. Cells are exposed for 24 hours to a combination of Trikafta® and a compound of formula (I) as defined herein after to be evaluated, and the activity of F508del-CFTR is measured by conductance in a Ussing chamber. The activation is initiated by addition of Forskolin (1 µM). […] All compounds tested were evaluated in combination with Trikafta®. In most instances, compounds were tested in triplicates at 0.1, 1 and 10 µM.
Wild-type CFBE cells (containing full-length, unmutated CFTR) are used as a reference.
F508del-CFTR expressing cells used in this present study were treated with CFTR modulators 24 h prior the experiments. The following CFTR modulators were used: Vx770 (Ivacaftor) (Selleckchem, S 1144) (Selleckchem, 24, rue des Tuileries, BP684, 67460 Souffelweyersheim, France), Vx445 (Elexacaftor) (Selleckchem, SE-S8851), Vx661 (Tezacaftor) (TargetMol, HY-15448) (TargetMol, Tebu-bio, 39 rue de Houdan, BP 15, 78612 Le-Perray-en-Yvelines cedex, France). Trikafta® is the combination of 1 µM Vx770, 3 µM Vx 445 and […] Vx661.
CFBE cell line stably expressing F508del-CFTR or WT-CFTR (CFBE WT-CFTR) were grown at 37°C in 5% CO2 - 95% air and media was replaced every 2 days.

CDK9 = CDK9 (Homo sapiens, UniProt P50750); test: Kinase inhibition, dose-response; format: biochemical; details: > 10: no inhibition at 10 µM, the highest dose tested
Procedure: (§1) All compounds were additionally tested over a range of concentrations for their ability to inhibit a series of 14 kinases. IC50 values were calculated from the dose-response curves and are reported in µM. > 10, no inhibition at 10 µM, the highest dose tested (see table 6 below). [drawing 409] Table 5: CFE cells were treated with Trikafta in the presence of increasing concentrations of various compounds and their N7-methylated counterparts. Their F508del-CFTR activity is reported as percentage of F508del-CFTR activity in the presence of Trikafta alone (100%).

CK1γ3 = CK1γ3 (Homo sapiens, UniProt Q9Y6M4); test: Kinase inhibition, dose-response; format: biochemical; details: > 10: no inhibition at 10 µM, the highest dose tested
Procedure: as §1

CK1γ1 = CK1γ1 (Homo sapiens, UniProt Q9HCP0); test: Kinase inhibition, dose-response; format: biochemical; details: > 10: no inhibition at 10 µM, the highest dose tested
Procedure: as §1

CLK2 = CLK2 (Homo sapiens, UniProt P49760); test: Kinase inhibition, dose-response; format: biochemical; details: > 10: no inhibition at 10 µM, the highest dose tested
Procedure: as §1

CLK3 = CLK3 (Homo sapiens, UniProt P49761); test: Kinase inhibition, dose-response; format: biochemical; details: > 10: no inhibition at 10 µM, the highest dose tested
Procedure: as §1

CK1ε = CK1ε (Homo sapiens, UniProt P49674); test: Kinase inhibition, dose-response; format: biochemical; details: > 10: no inhibition at 10 µM, the highest dose tested
Procedure: as §1

CK1α1 = CK1α1 (Homo sapiens, UniProt P48729); test: Kinase inhibition, dose-response; format: biochemical; details: > 10: no inhibition at 10 µM, the highest dose tested
Procedure: as §1

CDK7 = CDK7 (Homo sapiens, UniProt P50613); test: Kinase inhibition, dose-response; format: biochemical; details: > 10: no inhibition at 10 µM, the highest dose tested
Procedure: as §1

CDK2 = CDK2 (Homo sapiens, UniProt P24941); test: Kinase inhibition, dose-response; format: biochemical; details: > 10: no inhibition at 10 µM, the highest dose tested
Procedure: as §1

DYRK1A = DYRK1A (Homo sapiens, UniProt Q13627); test: Kinase inhibition, dose-response; format: biochemical; details: > 10: no inhibition at 10 µM, the highest dose tested
Procedure: as §1

CK1δ = CK1δ (Homo sapiens, UniProt P48730); test: Kinase inhibition, dose-response; format: biochemical; details: > 10: no inhibition at 10 µM, the highest dose tested
Procedure: as §1

CLK1 = CLK1 (Homo sapiens, UniProt P49759); test: Kinase inhibition, dose-response; format: biochemical; details: > 10: no inhibition at 10 µM, the highest dose tested
Procedure: as §1

CK1γ2 = CK1γ2 (Homo sapiens, UniProt P78368); test: Kinase inhibition, dose-response; format: biochemical; details: > 10: no inhibition at 10 µM, the highest dose tested
Procedure: as §1

CLK4 = CLK4 (Homo sapiens, UniProt Q9HAZ1); test: Kinase inhibition, dose-response; format: biochemical
Description: All compounds were additionally tested over a range of concentrations for their ability to inhibit a series of 14 kinases. […] Their F508del-CFTR activity is reported as percentage of F508del-CFTR activity in the presence of Trikafta alone (100%).

F508del-CFTR [2] = details: Norez et al. 2014; cited from earlier work
alveolar macrophages = details: Riazanski et al. 2015; cited from earlier work
kinase = details: Bettayeb et al. 2008; Popowycz et al. 2009; cited from earlier work
[3] = Bettayeb et al. 2008; Popowycz et al. 2009; cited from earlier work
[4] = read-out: IC50 CLK4; > 10: no inhibition at 10 µM, the highest dose tested

Sequence of CLK1 (P49759 whole entry): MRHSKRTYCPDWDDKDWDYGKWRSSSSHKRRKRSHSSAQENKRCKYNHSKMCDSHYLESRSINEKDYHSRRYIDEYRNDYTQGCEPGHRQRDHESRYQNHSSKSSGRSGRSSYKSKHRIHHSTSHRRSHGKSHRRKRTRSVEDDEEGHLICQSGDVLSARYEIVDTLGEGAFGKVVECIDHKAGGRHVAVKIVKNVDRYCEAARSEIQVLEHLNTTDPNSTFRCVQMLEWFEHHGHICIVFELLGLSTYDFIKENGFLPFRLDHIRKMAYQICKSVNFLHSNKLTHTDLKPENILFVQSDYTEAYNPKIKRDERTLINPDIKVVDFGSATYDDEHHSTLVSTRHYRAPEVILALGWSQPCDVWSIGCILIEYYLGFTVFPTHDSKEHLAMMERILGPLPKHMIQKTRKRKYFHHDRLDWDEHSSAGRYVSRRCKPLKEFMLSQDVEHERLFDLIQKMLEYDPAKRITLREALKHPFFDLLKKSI
Sequence of CK1δ (P48730 whole entry): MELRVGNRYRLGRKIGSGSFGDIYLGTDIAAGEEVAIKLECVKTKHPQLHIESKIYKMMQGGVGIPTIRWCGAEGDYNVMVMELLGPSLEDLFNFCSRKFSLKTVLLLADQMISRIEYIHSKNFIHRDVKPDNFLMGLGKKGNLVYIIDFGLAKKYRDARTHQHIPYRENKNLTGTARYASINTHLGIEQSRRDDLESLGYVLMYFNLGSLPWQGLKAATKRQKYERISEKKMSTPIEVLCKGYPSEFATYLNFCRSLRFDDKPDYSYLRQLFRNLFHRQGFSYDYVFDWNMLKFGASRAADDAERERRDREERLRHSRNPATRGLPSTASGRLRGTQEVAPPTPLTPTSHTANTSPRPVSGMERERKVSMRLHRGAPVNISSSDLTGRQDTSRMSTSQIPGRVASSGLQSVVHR
Sequence of CLK4 (Q9HAZ1 whole entry, species assumed): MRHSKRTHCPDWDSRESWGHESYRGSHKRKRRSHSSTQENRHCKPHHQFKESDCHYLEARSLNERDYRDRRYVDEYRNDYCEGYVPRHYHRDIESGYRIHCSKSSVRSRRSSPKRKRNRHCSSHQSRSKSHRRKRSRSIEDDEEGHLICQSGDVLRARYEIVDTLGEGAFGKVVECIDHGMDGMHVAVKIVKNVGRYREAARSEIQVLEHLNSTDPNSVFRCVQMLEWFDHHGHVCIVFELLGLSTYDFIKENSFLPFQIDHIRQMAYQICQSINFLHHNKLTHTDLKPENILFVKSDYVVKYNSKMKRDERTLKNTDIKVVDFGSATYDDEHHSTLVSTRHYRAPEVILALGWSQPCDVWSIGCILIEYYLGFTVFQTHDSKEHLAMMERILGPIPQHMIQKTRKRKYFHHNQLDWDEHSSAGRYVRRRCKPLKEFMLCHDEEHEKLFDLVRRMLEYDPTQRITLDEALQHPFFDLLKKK
Sequence of CK1α1 (P48729 whole entry): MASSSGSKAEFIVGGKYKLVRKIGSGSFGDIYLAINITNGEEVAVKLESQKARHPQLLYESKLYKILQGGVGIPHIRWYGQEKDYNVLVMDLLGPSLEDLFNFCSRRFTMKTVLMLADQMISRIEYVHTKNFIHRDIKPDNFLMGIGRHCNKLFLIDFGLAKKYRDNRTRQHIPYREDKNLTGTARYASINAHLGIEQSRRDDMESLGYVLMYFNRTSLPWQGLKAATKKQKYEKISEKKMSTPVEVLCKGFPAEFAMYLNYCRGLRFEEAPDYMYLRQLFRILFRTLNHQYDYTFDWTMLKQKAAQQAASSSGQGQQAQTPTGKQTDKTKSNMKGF
Sequence of CDK9 (P50750 whole entry, species assumed): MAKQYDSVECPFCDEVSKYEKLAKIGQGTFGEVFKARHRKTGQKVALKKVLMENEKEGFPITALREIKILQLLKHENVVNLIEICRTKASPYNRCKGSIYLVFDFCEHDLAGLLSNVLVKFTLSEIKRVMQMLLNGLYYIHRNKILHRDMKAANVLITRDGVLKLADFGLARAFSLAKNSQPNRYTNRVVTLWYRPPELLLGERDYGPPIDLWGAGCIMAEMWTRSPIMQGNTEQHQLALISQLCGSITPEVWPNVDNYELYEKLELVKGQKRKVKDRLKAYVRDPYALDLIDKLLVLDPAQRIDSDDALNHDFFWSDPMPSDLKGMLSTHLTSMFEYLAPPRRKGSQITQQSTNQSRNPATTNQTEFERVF
Sequence of CDK9 (O60563 whole entry partner, species assumed): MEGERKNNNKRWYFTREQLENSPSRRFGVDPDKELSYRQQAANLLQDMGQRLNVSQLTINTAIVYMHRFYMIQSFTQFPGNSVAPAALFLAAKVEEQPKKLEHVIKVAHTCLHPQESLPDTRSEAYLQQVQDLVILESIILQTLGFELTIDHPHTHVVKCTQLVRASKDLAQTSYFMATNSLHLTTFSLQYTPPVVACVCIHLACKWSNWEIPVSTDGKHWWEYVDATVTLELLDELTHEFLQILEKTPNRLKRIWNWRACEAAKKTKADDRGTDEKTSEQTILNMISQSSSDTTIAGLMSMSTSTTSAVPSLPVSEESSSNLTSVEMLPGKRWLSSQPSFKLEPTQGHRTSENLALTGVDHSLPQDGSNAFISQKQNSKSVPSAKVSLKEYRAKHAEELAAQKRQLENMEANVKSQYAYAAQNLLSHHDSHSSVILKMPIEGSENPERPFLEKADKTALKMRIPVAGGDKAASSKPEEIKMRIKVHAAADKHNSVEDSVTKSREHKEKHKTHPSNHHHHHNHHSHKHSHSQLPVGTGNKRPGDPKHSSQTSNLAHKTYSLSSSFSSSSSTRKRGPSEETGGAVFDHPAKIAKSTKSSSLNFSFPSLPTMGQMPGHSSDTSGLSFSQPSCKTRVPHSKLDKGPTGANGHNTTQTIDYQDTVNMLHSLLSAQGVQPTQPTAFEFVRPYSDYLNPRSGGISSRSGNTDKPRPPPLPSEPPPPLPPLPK
Sequence of CLK3 (P49761 whole entry, species assumed): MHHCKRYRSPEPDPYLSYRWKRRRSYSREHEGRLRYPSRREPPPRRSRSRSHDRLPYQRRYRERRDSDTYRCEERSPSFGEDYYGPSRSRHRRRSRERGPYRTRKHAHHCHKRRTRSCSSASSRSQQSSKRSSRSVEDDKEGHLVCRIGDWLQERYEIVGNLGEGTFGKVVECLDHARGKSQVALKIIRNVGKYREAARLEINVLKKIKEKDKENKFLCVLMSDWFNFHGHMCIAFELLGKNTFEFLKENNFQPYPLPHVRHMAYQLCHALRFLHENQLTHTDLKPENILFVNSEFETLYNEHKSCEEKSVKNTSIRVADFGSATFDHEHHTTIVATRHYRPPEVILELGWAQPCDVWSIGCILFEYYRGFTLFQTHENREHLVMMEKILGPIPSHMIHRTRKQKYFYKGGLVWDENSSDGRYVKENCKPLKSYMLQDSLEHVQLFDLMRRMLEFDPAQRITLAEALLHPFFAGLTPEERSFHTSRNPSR
Sequence of CK1γ2 (P78368 whole entry): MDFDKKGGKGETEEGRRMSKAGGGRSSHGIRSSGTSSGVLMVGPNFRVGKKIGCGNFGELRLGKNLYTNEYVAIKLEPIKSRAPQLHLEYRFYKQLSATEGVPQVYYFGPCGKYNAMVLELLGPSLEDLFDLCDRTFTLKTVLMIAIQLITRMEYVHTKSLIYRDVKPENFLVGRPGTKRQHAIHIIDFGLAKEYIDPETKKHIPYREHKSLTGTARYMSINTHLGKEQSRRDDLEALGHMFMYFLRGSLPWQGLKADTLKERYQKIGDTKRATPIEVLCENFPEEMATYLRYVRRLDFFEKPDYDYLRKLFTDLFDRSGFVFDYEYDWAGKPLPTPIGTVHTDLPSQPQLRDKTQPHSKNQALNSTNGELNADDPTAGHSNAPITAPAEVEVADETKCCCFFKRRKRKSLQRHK
Sequence of CK1γ1 (Q9HCP0 whole entry): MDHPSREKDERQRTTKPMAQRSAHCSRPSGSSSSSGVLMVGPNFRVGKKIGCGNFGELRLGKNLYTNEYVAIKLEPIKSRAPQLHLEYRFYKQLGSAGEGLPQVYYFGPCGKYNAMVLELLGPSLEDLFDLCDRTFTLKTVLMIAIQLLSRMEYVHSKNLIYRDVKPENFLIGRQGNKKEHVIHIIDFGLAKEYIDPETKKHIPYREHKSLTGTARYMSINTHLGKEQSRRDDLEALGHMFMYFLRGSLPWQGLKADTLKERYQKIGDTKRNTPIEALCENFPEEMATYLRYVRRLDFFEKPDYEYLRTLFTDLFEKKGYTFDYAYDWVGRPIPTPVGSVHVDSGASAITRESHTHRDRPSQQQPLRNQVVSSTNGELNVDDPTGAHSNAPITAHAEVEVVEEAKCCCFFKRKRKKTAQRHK
Sequence of CK1γ3 (Q9Y6M4 whole entry): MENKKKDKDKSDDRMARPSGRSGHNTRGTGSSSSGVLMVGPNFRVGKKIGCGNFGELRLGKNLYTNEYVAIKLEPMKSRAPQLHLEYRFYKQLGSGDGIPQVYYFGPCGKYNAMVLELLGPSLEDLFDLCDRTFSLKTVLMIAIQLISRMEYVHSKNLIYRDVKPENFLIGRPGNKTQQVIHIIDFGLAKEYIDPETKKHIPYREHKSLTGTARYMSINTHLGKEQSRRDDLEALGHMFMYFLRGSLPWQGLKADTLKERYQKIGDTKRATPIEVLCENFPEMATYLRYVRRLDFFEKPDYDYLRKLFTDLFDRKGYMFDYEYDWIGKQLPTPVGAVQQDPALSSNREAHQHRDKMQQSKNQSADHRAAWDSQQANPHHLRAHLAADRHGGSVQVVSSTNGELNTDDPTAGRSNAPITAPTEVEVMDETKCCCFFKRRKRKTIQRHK

CC(C)c1cnc2c(NCc3ccccc3)nc(N[C@@H]3CCOC3)nn12 [compound 19, N4-Benzyl-7-isopropyl-N2-[(3R)-tetrahydrofuran-3-yl]imidazo[2,1-f][1,2,4]triazine-2,4-diamine]
F508del-CFTR activity as percentage of F508del-CFTR activity in the presence of Trikafta alone (100%) (F508del-CFTR [1]; concentration 0.1 µM): 112.0% | F508del-CFTR activity as percentage of F508del-CFTR activity in the presence of Trikafta alone (100%) (F508del-CFTR [1]; concentration 1 µM): 122.2% | F508del-CFTR activity as percentage of F508del-CFTR activity in the presence of Trikafta alone (100%) (F508del-CFTR [1]; concentration 10 µM): 155.6% | pIC50 (CDK9): 5.50 | pIC50 (CK1γ3): < 5.00 | pIC50 (CK1γ1): < 5.00 | pIC50 (CLK2): 5.98 | pIC50 (CLK3): < 5.00 | pIC50 (CK1ε): 5.88 | pIC50 (CK1α1): < 5.00 | pIC50 (CDK7): 6.30 | pIC50 (CDK2): 5.89 | pIC50 (DYRK1A): < 5.00 | pIC50 (CK1δ): 6.23 | pIC50 (CLK1): 5.93 | pIC50 (CK1γ2): < 5.00 | pIC50 (CLK4; > 10: no inhibition at 10 µM, the highest dose tested; read-out: IC50 CLK4): 5.74

CC[C@H](CO)Nc1nc(NCc2ccccc2)c2ncn(C(C)C)c2n1 [roscovitine]
activating or boosting activity on a human lung epithelium cell line with F508del-CFTR mutation, in combination with Trikafta® (F508del-CFTR [1]; result in words): no activating or boosting activity | correction of the defective function of F508del-CFTR (F508del-CFTR [2]): partially correct the defective function of F508del-CFTR | intra-phagolysosomal pH of alveolar macrophages (alveolar macrophages): reduce the intra-phagolysosomal pH of alveolar macrophages

CC[C@H](CO)Nc1nc(NCc2ccccc2)c2ncc(C(C)C)n2n1 [compound 6, (2R)-2-[[4-(Benzylamino)-7-isopropyl-imidazo[2,1-f][1,2,4]triazin-2-yl]amino]butan-1-ol]
kinase inhibitory activity (kinase): modest kinase inhibitory activity | antitumor properties [3]: modest antitumor properties

CC(C)c1cnc2c(N(C)Cc3ccccc3)nc(N[C@@H]3CCOC3)nn12 [compound 32]
F508del-CFTR activity as percentage of F508del-CFTR activity in the presence of Trikafta alone (100%) (F508del-CFTR [1]; concentration 0.1 µM): 117.9% | F508del-CFTR activity as percentage of F508del-CFTR activity in the presence of Trikafta alone (100%) (F508del-CFTR [1]; concentration 1 µM): 113.7% | F508del-CFTR activity as percentage of F508del-CFTR activity in the presence of Trikafta alone (100%) (F508del-CFTR [1]; concentration 10 µM): 135.1% | pIC50 (CDK9): < 5.00 | pIC50 (CK1γ3): < 5.00 | pIC50 (CK1γ1): < 5.00 | pIC50 (CLK2): < 5.00 | pIC50 (CLK3): < 5.00 | pIC50 (CK1ε): < 5.00 | pIC50 (CK1α1): < 5.00 | pIC50 (CDK7): < 5.00 | pIC50 (CDK2): < 5.00 | pIC50 (DYRK1A): < 5.00 | pIC50 (CK1δ): < 5.00 | pIC50 (CLK1): < 5.00 | pIC50 (CK1γ2): < 5.00 | pIC50 (CLK4; [4]): < 5.00

CC(C)c1cnc2c(N(C)Cc3ccccc3)nc(NC3CCOCC3)nn12 [compound 49]
F508del-CFTR activity as percentage of F508del-CFTR activity in the presence of Trikafta alone (100%) (F508del-CFTR [1]; concentration 0.1 µM): 113.0% | F508del-CFTR activity as percentage of F508del-CFTR activity in the presence of Trikafta alone (100%) (F508del-CFTR [1]; concentration 1 µM): 125.9% | F508del-CFTR activity as percentage of F508del-CFTR activity in the presence of Trikafta alone (100%) (F508del-CFTR [1]; concentration 10 µM): 147.1% | pIC50 (CDK9): < 5.00 | pIC50 (CK1γ3): < 5.00 | pIC50 (CK1γ1): < 5.00 | pIC50 (CLK2): < 5.00 | pIC50 (CLK3): < 5.00 | pIC50 (CK1ε): < 5.00 | pIC50 (CK1α1): < 5.00 | pIC50 (CDK7): < 5.00 | pIC50 (CDK2): < 5.00 | pIC50 (DYRK1A): < 5.00 | pIC50 (CK1δ): < 5.00 | pIC50 (CLK1): < 5.00 | pIC50 (CK1γ2): < 5.00 | pIC50 (CLK4; [4]): < 5.00
